According to BindingDB's records for doi:10.1021/jm800936s (University of Oxford, 2008):

Each compound was assayed against T1, Lysine-specific demethylase 4E (Homo sapiens, UniProt B2RXH2) (assay: FDH Coupled Inhibition Assay). Details: pH 7.5; 37 °C.
T1 sequence (B2RXH2 whole entry): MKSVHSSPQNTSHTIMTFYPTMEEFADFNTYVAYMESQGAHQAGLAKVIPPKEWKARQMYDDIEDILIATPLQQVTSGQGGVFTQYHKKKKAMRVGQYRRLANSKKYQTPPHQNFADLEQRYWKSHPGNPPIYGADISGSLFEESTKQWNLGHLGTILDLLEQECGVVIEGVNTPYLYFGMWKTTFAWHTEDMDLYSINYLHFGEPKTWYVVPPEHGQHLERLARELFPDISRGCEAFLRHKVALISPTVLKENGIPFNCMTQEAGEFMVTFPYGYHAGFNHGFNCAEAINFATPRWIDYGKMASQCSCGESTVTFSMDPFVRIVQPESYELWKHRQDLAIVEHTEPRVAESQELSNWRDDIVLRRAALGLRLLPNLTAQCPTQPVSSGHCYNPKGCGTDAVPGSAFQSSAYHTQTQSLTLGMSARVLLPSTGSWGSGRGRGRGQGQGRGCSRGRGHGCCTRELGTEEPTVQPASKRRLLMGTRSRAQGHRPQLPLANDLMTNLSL
Procedure: A coupled-assay for JMJD2E activity employing formaldehyde dehydrogenase (FDH) from Pseudomonas putida was developed. Formaldehyde release by demethylation of the histone peptide substrate was monitored by its oxidation to give formate as catalyzed by FDH, which is carried out concomitantly with the reduction of NAD+. The production of NADH was monitored by fluorescence spectroscopy.

Compound	IC50 [mM]
CCCC(=O)O [butanoic acid]	> 10
COC(=O)c1ccnc(-c2cc(C(=O)O)ccn2)c1 [2-[4-(methoxycarbonyl)pyridin-2-yl]pyridine-4-carboxylic acid]	0.0066

Results, then the compound that gave them:

IC50 [mM]	Compound
> 5	O=C(O)c1cccnc1C(=O)O [pyridine-2,3-dicarboxylic acid]
> 10	O=C(O)c1ccncc1C(=O)O [pyridine-3,4-dicarboxylic acid]
> 10	O=C(O)c1cncc(C(=O)O)c1 [pyridine-3,5-dicarboxylic acid]
